Values quoted from earlier work in US20100069410A1 (Emisphere Technologies Inc., priority 2006, published 2010).

Conditions: orally administered, Physicians' Desk Reference 1994

reported oral bioavailability: 15-30%
Structure (SMILES): Nc1nc2c(ncn2COCCO)c(=O)[nH]1 [acyclovir, 9-(2-hydroxyethoxymethyl) guanine]
